In article PMC3020970, “K70Q Adds High-Level Tenofovir Resistance to “Q151M Complex” HIV Reverse Transcriptase through the Enhanced Discrimination Mechanism” (PLoS ONE, 2011):
Like-named read-outs stand apart in the source and are kept apart here. Marks after values point to notes of the source that are not given here.

Experiments:
Experiment in all cases: Primer extension assay
Assay type in all cases: biochemical
[1] = target: T1, HIV-1 RT Q151Mc (Human immunodeficiency virus type 1 group M subtype B, UniProt P03366, A661V/F676L/F715Y/Q750M/V674I)
T1 construct: made in house; host or cells: Escherichia coli BL21
Description: (§1) RT sequences coding for the p66 and p51 subunits of BH10 were cloned in the pRT dual vector, which is derived from pCDF-2 with LIC duet minimal adaptor (Novagen), using restriction sites PpuMI and SacI for the p51 subunit, and SacII and AvrII for the p66 subunit. RT was expressed in the Escherichia coli strain BL21 (Invitrogen) and purified by nickel affinity chromatography and MonoQ anion exchange chromatography. RT concentrations were determined spectrophotometrically based on absorption at […] using a calculated extinction coefficient (261,610 M^−1 cm^−1). The active site concentration of the various RT preparations was calculated as described below.
(§2) DNA oligomers were synthesized by Integrated DNA Technologies (Coralville, IA). An 18-nucleotide DNA primer fluorescently labeled with Cy3 at the 5′ end (P18; 5′-Cy3 GTC CCT GTT CGG GCG CCA-3′) and a 100-nucleotide DNA template (T100; 5′-TAGTGTGTGCCCGTCTGTTGTGTGACTCTGGTAACTAGAGATCCCTCAGACCCTTTTAGTCAGTGTGGAAAATCTCTAGCAGTGGCGCCCGAACAGGGAC-3′) were used in primer extension assays. An 18-nucleotide DNA primer 5′-labeled with Cy3 (P18; 5′-Cy3 GTC ACT GTT CGA GCA CCA-3′) and a 31-nucleotide DNA template (T31; 5′- CCATAGCTAGCATTGGTGCTCGAACAGTGAC-3′) were used in the ATP rescue assay and pre-steady state kinetic experiments.
(§3) The enzyme (20 nM active sites) was incubated with 20 nM template/primer at 37°C in a buffer containing 50 mM Tris-HCl, pH 7.8 and 50 mM NaCl. The DNA synthesis was initiated by the addition of 1 µM dNTP and 10 mM MgCl2. The primer extension assays were carried out in the presence or absence of varying concentrations of TFV-DP. The reactions were terminated after 15 min by adding equal volume of 100% formamide containing traces of bromophenol blue. The extension products were resolved on a 7 M urea-15% polyacrylamide gel, and visualized by phosphor-imaging (FLA 5100, Fujifilm, Tokyo). We followed standard protocols that utilize the Multi Gauge software (Fujifilm) to quantitate primer extension, [44]. The results from dose response experiments were plotted using Prism 4 (GraphPad Software Inc., CA) and IC50 values for TFV-DP were obtained at midpoint concentrations.

[2] = target: T2, HIV-1 RT WT (Human immunodeficiency virus type 1 group M subtype B, UniProt P03366)
T2 construct: made in house; host or cells: Escherichia coli BL21
Description: as §1, §2, §3

[3] = target: T3, HIV-1 RT K70Q (Human immunodeficiency virus type 1 group M subtype B, UniProt P03366, K669Q)
T3 construct: made in house; host or cells: Escherichia coli BL21
Description: as §1, §2, §3

[4] = target: T4, HIV-1 RT K70Q/Q151Mc (Human immunodeficiency virus type 1 group M subtype B, UniProt P03366, A661V/F676L/F715Y/K669Q/Q750M/V674I)
T4 construct: made in house; host or cells: Escherichia coli BL21
Description: as §1, §2, §3

[5] = with 3.5 mM ATP, read-out: IC50 of TFV-DP, with ATP
[6] = without ATP, read-out: IC50 of TFV-DP, without ATP

CC(Cn1cnc2c(N)ncnc21)OCP(=O)(O)OP(=O)(O)OP(=O)(O)O (stereo in doubt) [TFV-DP, tenofovir-diphosphate]
Excision enhancement due to ATP (IC50 with ATP/IC50 without ATP) [1]: 2.7 fold
IC50 [1, 5]: 4000 ± 341 nM
Fold increase in IC50 vs WT RT, with ATP ([1]; with ATP): (2.1) fold
Fold increase in IC50 vs WT RT, without ATP ([1]; without ATP): (2.3) fold
IC50 [1, 6]: 1500 ± 90 nM
Excision enhancement due to ATP (IC50 with ATP/IC50 without ATP) [2]: 2.9 fold
IC50 [2, 5]: 1850 ± 197 nM
Fold increase in IC50 vs WT RT, with ATP ([2]; with ATP): (1) ^b fold
Fold increase in IC50 vs WT RT, without ATP ([2]; without ATP): (1) ^b fold
IC50 [2, 6]: 641 ± 83 nM
Excision enhancement due to ATP (IC50 with ATP/IC50 without ATP) [3]: 2.9 fold
IC50 [3, 5]: 2310 ± 270 nM
Fold increase in IC50 vs WT RT, with ATP ([3]; with ATP): (1.2) fold
Fold increase in IC50 vs WT RT, without ATP ([3]; without ATP): (1.3) fold
IC50 [3, 6]: 802 ± 99 nM
Excision enhancement due to ATP (IC50 with ATP/IC50 without ATP) [4]: 2.9 fold
IC50 [4, 5]: 7000 ± 226 nM
Fold increase in IC50 vs WT RT, with ATP ([4]; with ATP): (3.8) fold
Fold increase in IC50 vs WT RT, without ATP ([4]; without ATP): (3.7) fold
IC50 [4, 6]: 2390 ± 353 nM
